Experimental findings from US10479819B2 (priority 2014, dated 2019) are described below.

The subject of series [1] is DIO mice. Briefly: Body weight reduction in DIO (obese) mice. The format is in vivo. The settings on record: 250 μg/kg SC daily, day 11 to day 30, DIO mice; for body weight compared with normal saline group: P<0.05. An excerpt: Forty 25-week-old DIO mice (Nanjing University model animal research center) were randomly divided into five groups (compound 4, 5, 6, 7, and normal saline group), 8 in each group, having no difference in the basis weight of each group.

In series [2] the target is T1, human GLP-1R (Homo sapiens, UniProt P43220).
T1 construct: expressed in transfected cells
T1 sequence (P43220 24-463): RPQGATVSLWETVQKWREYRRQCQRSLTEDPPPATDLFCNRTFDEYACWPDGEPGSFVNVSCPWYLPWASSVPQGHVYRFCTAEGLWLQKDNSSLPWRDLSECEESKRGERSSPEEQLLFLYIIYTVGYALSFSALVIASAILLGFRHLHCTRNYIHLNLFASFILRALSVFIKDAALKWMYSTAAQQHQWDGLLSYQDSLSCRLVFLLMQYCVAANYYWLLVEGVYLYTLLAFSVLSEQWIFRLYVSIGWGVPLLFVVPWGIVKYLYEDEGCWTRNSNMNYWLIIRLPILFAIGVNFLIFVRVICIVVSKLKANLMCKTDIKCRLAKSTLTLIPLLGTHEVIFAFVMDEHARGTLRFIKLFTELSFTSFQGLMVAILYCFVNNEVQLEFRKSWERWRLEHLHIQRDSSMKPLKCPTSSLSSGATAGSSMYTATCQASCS
Briefly: In vitro activity on GLP-1R, CRE-luciferase HEK-293 cells. The format is cell-based. The settings on record: for GLP-1R/GCGR: ratio of EC50 GLP-1R to EC50 GCGR. As to the method: (§1) 5000 of HEK-293 cells, which are used in CRE-luciferase system and express human GCGR or GLP-1R stably, were inoculated into 384 well plates according to […] DMEM/10% FBS media/well. […] After incubation, […] of luciferase reagent was added directly to each plate and mixed gently for 2 minutes. The plates were placed into an Elmer Perkin plate reader for reading. Concentration curve of the compound was made by drawing software Prism 5, and the EC50 value was calculated.

The nature of series [3]: Pharmacokinetic analysis after IV or SC administration in male CD1 mice. The settings on record: for Tmax / half-life: iv. The protocol: Pharmacokinetic parameters of the drugs were calculated by methods of model dependence (for data obtained from IV) and model independence (data obtained from SC).
In series [4] the test system is male C57B1/6J mice. Briefly: Oral glucose tolerance test in male C57B1/6J mice. The format is in vivo. The settings on record: 250 μg/kg; for AUC of blood glucose in all four OGTT curve periods (0-480 min) compared with carrier (PBS): P<0.05; for effect on oral glucose tolerance: male C57B1/6J mice. As to the method: 12-16 week-old male C57B1/6J mice (Nanjing University model animal research center) were randomly divided into groups 8 in each group, according to similar blood glucose (assessed by the blood samples obtained from the tail tip). After fasting (for 6 hours), the animals were administrated, and about 4 hours later, initial blood samples (fasting blood glucose level) were taken. Subsequently, the animals were administrated with an oral dose of glucose, and then put back into their cages (t=0). Blood glucose was measured at t=15 minutes, t=30 minutes, t=60 minutes, t=90 minutes and t=120 minutes. And then the animals were administrated with an oral dose of glucose again, and blood glucose was tracked until 8 hours.

Series [5] concerns the target T2, human GCGR (Homo sapiens, UniProt P47871).
T2 construct: expressed in transfected cells
The experiment in a line: In vitro activity on GCGR, CRE-luciferase HEK-293 cells. The format is cell-based. The settings on record: read-out: GCGR (EC50). The protocol: as §1

Like-named read-outs stand apart in the source and are kept apart here. Starred links: 1 amine or outer side, 2 acyl side, 3 side chain; linkers in the order of their positions; H or OH if unused. Non-standard residues stand in square brackets, D forms with d. Residues, ends and D or L forms follow the SMILES beside them. Groups on a side chain read outwards from the residue. *: point of attachment. C18 diacid = O=C(O)CCCCCCCCCCCCCCCCC(=O)*; γGlu = O=C(O)[C@H](CCC(=O)[*:2])N[*:1]; PEG2 = NCCOCCOCCC(=O)O

T2 sequence (P47871 26-477): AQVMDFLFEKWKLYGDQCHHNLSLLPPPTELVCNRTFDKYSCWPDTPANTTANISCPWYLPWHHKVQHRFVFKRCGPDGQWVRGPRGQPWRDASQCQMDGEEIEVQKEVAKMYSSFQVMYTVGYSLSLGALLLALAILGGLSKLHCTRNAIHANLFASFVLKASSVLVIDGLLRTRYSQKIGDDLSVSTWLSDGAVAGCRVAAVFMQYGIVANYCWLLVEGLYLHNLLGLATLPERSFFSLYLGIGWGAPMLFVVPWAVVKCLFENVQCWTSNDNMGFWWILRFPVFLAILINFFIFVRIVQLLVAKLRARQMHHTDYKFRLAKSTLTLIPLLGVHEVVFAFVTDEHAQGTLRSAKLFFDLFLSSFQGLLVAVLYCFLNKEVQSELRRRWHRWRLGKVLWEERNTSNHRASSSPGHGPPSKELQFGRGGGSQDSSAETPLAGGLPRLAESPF

As to `CC[C@H](C)[C@H](NC(=O)[C@H](Cc1ccccc1)NC(=O)[C@H](CCC(=O)O)NC(=O)[C@H](CCCCNC(=O)CCOCCOCCNC(=O)CCOCCOCCNC(=O)CC[C@H](NC(=O)CCCCCCCCCCCCCCCCC(=O)O)C(=O)O)NC(=O)[C@H](C)NC(=O)[C@H](C)NC(=O)[C@H](CCCCN)NC(=O)[C@H](CCC(=O)O)NC(=O)[C@H](CC(=O)O)NC(=O)[C@H](CC(C)C)NC(=O)[C@H](Cc1ccc(O)cc1)NC(=O)[C@H](CCCCN)NC(=O)[C@H](CO)NC(=O)[C@H](Cc1ccc(O)cc1)NC(=O)[C@H](CC(=O)O)NC(=O)[C@H](CO)NC(=O)[C@@H](NC(=O)[C@H](Cc1ccccc1)NC(=O)[C@@H](NC(=O)CNC(=O)[C@H](CCC(N)=O)NC(=O)[C@@H](CO)NC(=O)[C@@H](N)Cc1c[nH]cn1)[C@@H](C)O)[C@@H](C)O)C(=O)N[C@@H](CCC(=O)O)C(=O)N[C@@H](Cc1c[nH]c2ccccc12)C(=O)N[C@@H](CC(C)C)C(=O)N[C@@H](CC(C)C)C(=O)N[C@@H](CC(N)=O)C(=O)NCC(=O)NCC(=O)N1CCC[C@H]1C(=O)N[C@@H](CO)C(=O)N[C@@H](CO)C(=O)NCC(=O)N[C@@H](C)C(=O)N1CCC[C@H]1C(=O)N1CCC[C@H]1C(=O)N1CCC[C@H]1C(=O)N[C@@H](CO)C(N)=O` [Compound 4] (H-H[dS]QGTFTSDYSKYLDEKAAK([PEG2-PEG2-γGlu-C18 diacid])EFIEWLLNGGPSSGAPPPS-NH2), in series [1], the weight loss entry was “about 20%” and the “body weight compared with normal saline group” value was “significantly lower”. In addition, in series [2], a half-maximal effect (EC50) was put at 0.13 nM and the GLP-1R/GCGR is 0.3. The clinical adverse effect result in series [3] (IV or SC route, male CD1 mice) was “no clinical adverse effect”. In series [3] (mouse, in vivo), the Tmax is approximately 12 h and the half-life lay in the range of 4 to 6 h. Moreover, in series [4], the “AUC of blood glucose in all four OGTT curve periods (0-480 min) compared with carrier (PBS)” value is “significantly decreased” and the “effect on oral glucose tolerance” value is “significantly reduced the oral glucose tolerance”.
Regarding `CSCC[C@H](NC(=O)[C@H](CC(C)C)NC(=O)[C@H](Cc1c[nH]c2ccccc12)NC(=O)[C@H](CCC(N)=O)NC(=O)[C@@H](NC(=O)[C@H](Cc1ccccc1)NC(=O)[C@H](CC(=O)O)NC(=O)[C@H](CCC(N)=O)NC(=O)[C@H](C)NC(=O)[C@H](CCCNC(=N)N)NC(=O)[C@H](CCCNC(=N)N)NC(=O)C(C)(C)NC(=O)[C@H](CC(=O)O)NC(=O)[C@H](CC(C)C)NC(=O)[C@H](Cc1ccc(O)cc1)NC(=O)[C@H](CCCCN)NC(=O)[C@H](CO)NC(=O)[C@H](CCCCNC(=O)CCOCCOCCNC(=O)CCOCCOCCNC(=O)CCCCCCCCCCCCCCCCC(=O)O)NC(=O)[C@H](CC(=O)O)NC(=O)[C@H](CO)NC(=O)[C@@H](NC(=O)[C@H](Cc1ccccc1)NC(=O)[C@@H](NC(=O)CNC(=O)[C@H](CCC(N)=O)NC(=O)[C@@H](CO)NC(=O)[C@@H](N)Cc1c[nH]cn1)[C@@H](C)O)[C@@H](C)O)C(C)C)C(=O)N[C@@H](CC(N)=O)C(=O)N[C@H](C(=O)NCC(=O)NCC(=O)N1CCC[C@H]1C(=O)N[C@@H](CO)C(=O)N[C@@H](CO)C(=O)NCC(=O)N[C@@H](C)C(=O)N1CCC[C@H]1C(=O)N1CCC[C@H]1C(=O)N1CCC[C@H]1C(=O)N[C@@H](CO)C(N)=O)[C@@H](C)O` [Compound 6], in series [1], the weight loss result is recorded as “about 20%” and the “body weight compared with normal saline group” value is given as “significantly lower”. Further, the GLP-1R/GCGR in series [2] was 0.3. For the same molecule, in series [3] (mouse, in vivo), the clinical adverse effect result was “no clinical adverse effect”, the Tmax is approximately 12 h and the half-life fell in the range of 4 to 6 h. Moreover, in series [3] (mouse, in vivo, sc), the peak time result was “more than 12 hours”. Further, in series [4], the “AUC of blood glucose in all four OGTT curve periods (0-480 min) compared with carrier (PBS)” value is “significantly decreased” and the “effect on oral glucose tolerance” value is given as “significantly reduced the oral glucose tolerance”.
As for `CSCC[C@H](NC(=O)[C@H](CC(C)C)NC(=O)[C@H](Cc1c[nH]c2ccccc12)NC(=O)[C@H](CCC(N)=O)NC(=O)[C@@H](NC(=O)[C@H](Cc1ccccc1)NC(=O)[C@H](CC(=O)O)NC(=O)[C@H](CCC(N)=O)NC(=O)[C@H](C)NC(=O)[C@H](CCCNC(=N)N)NC(=O)[C@H](CCCNC(=N)N)NC(=O)C(C)(C)NC(=O)[C@H](CC(=O)O)NC(=O)[C@H](CC(C)C)NC(=O)[C@H](Cc1ccc(O)cc1)NC(=O)[C@H](CCCCN)NC(=O)[C@H](CO)NC(=O)[C@H](CCCCNC(=O)CCOCCOCCNC(=O)CCOCCOCCNC(=O)CC[C@H](NC(=O)CCCCCCCCCCCCCCCCC(=O)O)C(=O)O)NC(=O)[C@H](CC(=O)O)NC(=O)[C@H](CO)NC(=O)[C@@H](NC(=O)[C@H](Cc1ccccc1)NC(=O)[C@@H](NC(=O)CNC(=O)[C@H](CCC(N)=O)NC(=O)[C@@H](CO)NC(=O)[C@@H](N)Cc1c[nH]cn1)[C@@H](C)O)[C@@H](C)O)C(C)C)C(=O)N[C@@H](CC(N)=O)C(=O)N[C@H](C(=O)NCC(=O)NCC(=O)N1CCC[C@H]1C(=O)N[C@@H](CO)C(=O)N[C@@H](CO)C(=O)NCC(=O)N[C@@H](C)C(=O)N1CCC[C@H]1C(=O)N1CCC[C@H]1C(=O)N1CCC[C@H]1C(=O)N[C@@H](CO)C(N)=O)[C@@H](C)O` [Compound 8], the EC50 in series [5] stood at 0.18 nM. For the same molecule, the GLP-1R/GCGR in series [2] is recorded as 1.1.
With `CSCC[C@H](NC(=O)[C@H](CC(C)C)NC(=O)[C@H](Cc1c[nH]c2ccccc12)NC(=O)[C@H](CCC(N)=O)NC(=O)[C@@H](NC(=O)[C@H](Cc1ccccc1)NC(=O)[C@H](CC(=O)O)NC(=O)[C@H](CCC(N)=O)NC(=O)[C@H](C)NC(=O)[C@H](CCCNC(=N)N)NC(=O)[C@H](CCCNC(=N)N)NC(=O)[C@H](CCCCNC(=O)CCOCCOCCNC(=O)CCOCCOCCNC(=O)CCCCCCCCCCCCCCCCC(=O)O)NC(=O)[C@H](CC(=O)O)NC(=O)[C@H](CC(C)C)NC(=O)[C@H](Cc1ccc(O)cc1)NC(=O)[C@H](CCCCN)NC(=O)[C@H](CO)NC(=O)[C@H](Cc1ccc(O)cc1)NC(=O)[C@H](CC(=O)O)NC(=O)[C@H](CO)NC(=O)[C@@H](NC(=O)[C@H](Cc1ccccc1)NC(=O)[C@@H](NC(=O)CNC(=O)[C@H](CCC(N)=O)NC(=O)[C@@H](CO)NC(=O)[C@@H](N)Cc1c[nH]cn1)[C@@H](C)O)[C@@H](C)O)C(C)C)C(=O)N[C@@H](CC(N)=O)C(=O)N[C@H](C(=O)NCC(=O)NCC(=O)N1CCC[C@H]1C(=O)N[C@@H](CO)C(=O)N[C@@H](CO)C(=O)NCC(=O)N[C@@H](C)C(=O)N1CCC[C@H]1C(=O)N1CCC[C@H]1C(=O)N1CCC[C@H]1C(=O)N[C@@H](CO)C(N)=O)[C@@H](C)O` [Compound 9], the EC50 in series [5] is 0.18 nM. Also, in series [2], the GLP-1R/GCGR is 2.9.
On to `CSCC[C@H](NC(=O)[C@H](CC(C)C)NC(=O)[C@H](Cc1c[nH]c2ccccc12)NC(=O)[C@H](CCC(N)=O)NC(=O)[C@@H](NC(=O)[C@H](Cc1ccccc1)NC(=O)[C@H](CC(=O)O)NC(=O)[C@H](CCC(N)=O)NC(=O)[C@H](C)NC(=O)[C@H](CCCNC(=N)N)NC(=O)[C@H](CCCNC(=N)N)NC(=O)[C@H](CCCCNC(=O)CCOCCOCCNC(=O)CCOCCOCCNC(=O)CC[C@H](NC(=O)CCCCCCCCCCCCCCCCC(=O)O)C(=O)O)NC(=O)[C@H](CC(=O)O)NC(=O)[C@H](CC(C)C)NC(=O)[C@H](Cc1ccc(O)cc1)NC(=O)[C@H](CCCCN)NC(=O)[C@H](CO)NC(=O)[C@H](Cc1ccc(O)cc1)NC(=O)[C@H](CC(=O)O)NC(=O)[C@H](CO)NC(=O)[C@@H](NC(=O)[C@H](Cc1ccccc1)NC(=O)[C@@H](NC(=O)CNC(=O)[C@H](CCC(N)=O)NC(=O)[C@@H](CO)NC(=O)[C@@H](N)Cc1c[nH]cn1)[C@@H](C)O)[C@@H](C)O)C(C)C)C(=O)N[C@@H](CC(N)=O)C(=O)N[C@H](C(=O)NCC(=O)NCC(=O)N1CCC[C@H]1C(=O)N[C@@H](CO)C(=O)N[C@@H](CO)C(=O)NCC(=O)N[C@@H](C)C(=O)N1CCC[C@H]1C(=O)N1CCC[C@H]1C(=O)N1CCC[C@H]1C(=O)N[C@@H](CO)C(N)=O)[C@@H](C)O` [Compound 11], for which the EC50 in series [5] came to 0.18 nM; in series [2] (read-out: GLP-1R (EC50)), 0.15 nM. Further, in series [2], the GLP-1R/GCGR was determined as 0.8.

Usually EC50 stands for the concentration giving half of the maximal effect. What is called Tmax is the time from dosing to the highest level. As a reminder, the half-life is how long it takes for the measured level to halve.
